Legend:
SBC5 cells = test: IncuCyte S3 live-cell proliferation; assay type: cell-based, human
Procedure: (§1) FIGS. 2A-2I. Teriflunomide (Teri) affects the phosphorylation of DRP1 at Ser^616 and mitochondrial/nuclear morphology. FIG. 2A: Effect of Teri and Leflu on SBC3, and SBC5 cells proliferation was recorded by the Sartorius IncuCyte S3 live-cell analysis system (n=2, four technical replicates). […] FIG. 2B: Effect of Teri on DRP1 phosphorylation in SBC3 cells. Cell lysates were subjected to immunoblotting (n=3, biological replicates). FIG. 2C: The expression ratio of level of pDRP1 Ser^616 and Ser^637 to actin was calculated via densitometric analysis of each blot using ImageJ software. The detected ratio of pDRP1 Ser^616 to pDRP1 Ser^637 was calculated and compared in SBC3 cells. […] FIGS. 2D-2E: Calculating pDRP1 Ser^616 fluorescence signal by QuPath software. Bar graphs mean±SE, *p<0.05; **p<0.01; ***p<0.001; ****p<0.0001. Results were analyzed by ANOVA with Tukey post-test. FIG. 2F: The surface areas of SBC3 mitochondria and nuclei were quantified with Imaris Cells modules. The minimal number of SBC3 cells analyzed for each group was 103 (M1 10 μM), and the maximal was 383 (Control). FIG. 2G: SBC5 mitochondria and nuclei surface areas were quantified with Imaris Cells modules. The minimal number of SBC5 cells analyzed for each group was 357 (MDIVI1 10 μM) and the maximal was 570 (Control). Results were analyzed by ANOVA with Tukey post-test, *p<0.05; **p<0.01; ****p<0.0001. Mitochondria in control cells were closely packed around the nuclei and treatment with Teri rearranged the mitochondrial network and extended the area from the nuclei. […] SBC3 cells were treated with drugs for 18 hours, fixed with paraformaldehyde and subjected to IF staining with Tom 20 antibody, nuclei were stained with Hoechst 33342. Scale bar 10 μm. Right inserts represent shape of mitochondria for control and treatments. FIG. 2I: High resolution confocal IF images of mitochondria in SBC5 cells. Scale bar 10 μm. Right inserts represent shape of mitochondria for control and treatments.

SBC3 cells [1] = test: IncuCyte S3 live-cell proliferation; assay type: cell-based, human
Procedure: as §1

SBC3 xenograft = test: SBC3 mouse xenograft, Lur/Leflu study; assay type: in vivo; conditions: for tumor weight at end of study: Lur 0.5 mg/kg, Leflu 3.8 mg/kg, i.p. twice a week; for reduction in tumor size/weight: vs control
Procedure: (§2) Athymic nude nu/nu mice were obtained from Charles River, Wilmington, MA, and were acclimated for a week before beginning the experiment. All animal experiments were carried out in accordance with a protocol approved by the Institutional Animal Care and Use Committee COH (IACUC #16004). For treatments, mice were divided into 4 groups with five mice per group and subcutaneously injected into one flank with 2×10^6 SBC3 or SBC5 cells suspensions in 100 μl of PBS. Treatment started on the 14th day when tumors became palpable. Two in vivo studies were done in this project. SBC3 and SBC 5 xenograft with i) vehicle control, ii) […] 50 mg/kg, iii) Leflu 7.5 mg/kg, and iv) […]/Leflu. SBC3 with i) vehicle control, ii) Lur 0.5 mg/kg, iii) Leflu 3.8 mg/kg, and iv) Lur/Leflu. Treatments were given to mice via i.p. twice a week for 6 weeks. Animals were examined daily for signs of tumor growth. Tumors were measured in two dimensions using calipers and body weights were recorded. Animals were photographed on days 1, 5, 10, 15, 20, 25, 30, 35, and 40 after treatment. Tumors were removed on day 40 and photographed. At the end of the study, the mice were euthanized by CO2 asphyxiation followed by cervical dislocation. The tumor weights were compared between groups using an unpaired Student's t-test. A portion of the tumor was fixed in 10% buffered formaldehyde solution and paraffin-embedded for immuno-staining. FFPE tumor sections were stained with pDRP Ser^616 antibody. Tumor sections were deparaffinized and rehydrated, followed by heat-mediated antigen retrieval (pH 6, Dako). After permeabilization and blocking, tumor sections were stained with pDRP1 Ser^616 antibody overnight, washed and incubated with Alexa 488 secondary antibody for one hour, mounted and observed on an LSM 880 with a 10×/0.45 NA objective (Carl Zeiss). Immunofluorescent confocal images were acquired for each treatment (magnification:100×). Mean immunofluorescence intensities were calculated with ZEN 2.3 Lite software.

SBC5 xenograft = test: SBC5 mouse xenograft, Carbo/Leflu study; assay type: in vivo; conditions: Carbo 50 mg/kg, Leflu 7.5 mg/kg, i.p. twice a week
Procedure: as §2, with “A portion of the tumor was fixed in 10% buffered formaldehyde solution and paraffin-embedded for immuno-staining. FFPE tumor sections were stained with pDRP Ser^616 antibody. Tumor sections were deparaffinized and rehydrated, followed by heat-mediated antigen retrieval (pH 6, Dako). After permeabilization and blocking, tumor sections were stained with pDRP1 Ser^616 antibody overnight, washed and incubated with Alexa 488 secondary antibody for one hour, mounted and observed on an LSM 880 with a 10×/0.45 NA objective (Carl Zeiss). Immunofluorescent confocal images were acquired for each treatment (magnification:100×).” left out

SCLC = conditions: relapsed / second-line SCLC patients; cited from earlier work
SBC3 cells [2] = test: Immunoblotting of cell lysates (pDRP1, p53, DNA damage markers); assay type: cell-based, human
Procedure: SCLC total cell lysates were prepared using RIPA (radioimmunoprecipitation assay lysis buffer) lysis buffer. Protein concentration was determined using DC Protein Assay Kit Bio-Rad (Hercules, CA). Samples were then run on SDS-PAGE in 4-15% polyacrylamide gels and transferred onto Immobilon membranes (Millipore, MO), blocked, incubated with specific primary antibodies at 4° C. overnight, and subsequently developed with secondary antibodies. The following primary antibody were used: pan-Actin, Phospho-DRP1 (Ser^616), Phospho-DRP1 (Ser^637), Histone H2B (V^119), Phospho-Histone H2A.X (Ser^139), Phospho-P53 (Ser^15), P-53, Cleaved PARP (Asp^214) (D64E10), Phospho-Chk1 (Ser^345) (133D3) and p21 were from Cell Signaling Technology (City of Industry, CA), β-Actin (Sigma-Aldrich, St. Luis, MO), Phospho RNA Polymerase II (S2) antibody (Bethyl Lab, Montgomery, TX), RNA Polymerase II CTD4H8 (BioLegend, San Diego, CA), DHODH (E-8), DRP1 (C-5), GAPDH (0411), c-Myc (9E10), Tom20 (F-10), FisI (B-5), OPA1 (D-9), antibodies from Santa Cruz Biotechnology (Dallas, TX) and MFN2 (Abcam, Boston, MA) and Chk1, MDM2, Cyclin CDK4 and D1, and E2F1 (Proteintech, Rosemont, IL).

Structure (SMILES)	cell proliferation (SBC5 cells)	cell proliferation (SBC3 cells [1])	tumor weight at end of study (SBC3 xenograft) [g]	reduction in tumor size/weight (SBC3 xenograft) [%]	final tumor weight (day 40) (SBC5 xenograft) [g]	ORR (SCLC) [%]	median PFS (SCLC) [months]	ratio of pDRP1 (Ser616) to pDRP1 (Ser637) (SBC3 cells [2]; SBC3, densitometry)	DRP1 expression level (SBC3 cells [2]; SBC3, immunoblot)	DRP1 phosphorylation at Ser616, and Ser637 (SBC3 cells [2]; SBC3, immunoblot)
Cc1oncc1C(=O)Nc1ccc(C(F)(F)F)cc1 [Leflunomide, leflunomide]	inhibited cell proliferation in a dose-dependent manner	inhibited cell proliferation in a dose-dependent manner	1.39 ± 0.12	~22	1.49 ± 0.20					
COc1ccc2[nH]c3c(c2c1)CCN[C@]31CS[C@@H]2c3c(OC(C)=O)c(C)c4c(c3[C@H](COC1=O)N1[C@@H]2[C@H]2c3c(cc(C)c(OC)c3O)C[C@@H]([C@@H]1O)N2C)OCO4 [Lurbinectedin, lurbinectedin]			1.09 ± 0.11	~39		32.7	3.5			
C/C(O)=C(\C#N)C(=O)Nc1ccc(C(F)(F)F)cc1 [Teriflunomide, teriflunomide]	inhibited cell proliferation in a dose-dependent manner	inhibited cell proliferation in a dose-dependent manner						significantly decreased in a dose-dependent manner	unaffected	significantly inhibited

From patent US20250041313A1, “COMBINATION THERAPY FOR TREATMENT OF CANCER” (CITY OF HOPE, priority 2023, published 2025)
